Legend:
Mu-type opioid receptor [1] = molecular target: T1, Mu-type opioid receptor (Homo sapiens, UniProt P35372); assay: biochemical; assay type: cell-based, CHO
Mu-type opioid receptor [2] = molecular target: T1, Mu-type opioid receptor; conditions: CHO
Description: Antagonist activity at human mu opioid receptor expressed in CHO cells coexpressing human recombinant MOR after 3 hrs by [35S]GTPgammaS binding assay

[3] = molecular target: T2, Kappa-type opioid receptor (Homo sapiens, UniProt P41145); assay: Displacement of [125I]IOXY from human kappa opioid receptor expressed in CHO cells coexpressing human recombinant KOP after 2 hrs by liquid scintillation counting; assay type: cell-based
T2 sequence (P41145 whole entry): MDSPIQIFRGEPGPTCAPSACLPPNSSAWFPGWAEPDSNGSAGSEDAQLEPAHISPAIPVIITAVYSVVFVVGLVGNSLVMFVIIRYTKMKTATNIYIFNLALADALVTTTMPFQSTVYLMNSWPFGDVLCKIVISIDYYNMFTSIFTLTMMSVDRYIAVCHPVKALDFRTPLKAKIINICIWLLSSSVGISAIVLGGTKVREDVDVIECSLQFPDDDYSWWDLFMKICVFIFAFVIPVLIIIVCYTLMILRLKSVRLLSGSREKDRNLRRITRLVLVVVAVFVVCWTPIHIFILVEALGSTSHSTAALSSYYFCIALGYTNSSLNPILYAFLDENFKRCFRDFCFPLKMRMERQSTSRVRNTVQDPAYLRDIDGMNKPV

[4] = molecular target: T2, Kappa-type opioid receptor; conditions: CHO
Description: Antagonist activity at human kappa opioid receptor expressed in CHO cells coexpressing human recombinant KOP after 3 hrs by [35S]GTPgammaS binding assay

[5] = molecular target: Delta-type opioid receptor (Homo sapiens, UniProt P41143); assay: Displacement of [125I]IOXY from human delta opioid receptor expressed in CHO cells coexpressing human recombinant DOR after 2 hrs by liquid scintillation counting; assay type: cell-based
Sequence of Delta-type opioid receptor (P41143 whole entry): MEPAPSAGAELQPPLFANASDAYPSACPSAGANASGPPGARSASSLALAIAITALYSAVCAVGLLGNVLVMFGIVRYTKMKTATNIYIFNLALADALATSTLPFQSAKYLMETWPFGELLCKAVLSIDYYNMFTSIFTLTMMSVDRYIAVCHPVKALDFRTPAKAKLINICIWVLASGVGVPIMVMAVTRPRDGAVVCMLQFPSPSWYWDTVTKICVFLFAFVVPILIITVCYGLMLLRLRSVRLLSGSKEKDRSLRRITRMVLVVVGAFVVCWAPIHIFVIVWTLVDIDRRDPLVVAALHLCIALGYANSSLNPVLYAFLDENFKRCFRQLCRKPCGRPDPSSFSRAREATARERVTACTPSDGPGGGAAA

T1 sequence (P35372 whole entry): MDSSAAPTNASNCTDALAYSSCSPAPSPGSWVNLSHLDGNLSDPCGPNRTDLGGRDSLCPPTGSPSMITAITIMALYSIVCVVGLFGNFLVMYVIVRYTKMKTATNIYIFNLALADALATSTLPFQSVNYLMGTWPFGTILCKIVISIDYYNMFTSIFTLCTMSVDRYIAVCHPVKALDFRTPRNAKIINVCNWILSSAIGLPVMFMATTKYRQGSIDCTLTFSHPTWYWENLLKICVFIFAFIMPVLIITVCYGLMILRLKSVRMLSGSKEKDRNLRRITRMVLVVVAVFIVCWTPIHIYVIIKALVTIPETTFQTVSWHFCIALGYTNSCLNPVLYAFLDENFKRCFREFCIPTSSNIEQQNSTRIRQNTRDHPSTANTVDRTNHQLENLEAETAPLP

Structure (SMILES)	Ki (Mu-type opioid receptor [1]) [nM]	Ke (Mu-type opioid receptor [2]) [nM]	Ki [3] [nM]	Ke [4] [nM]	Ki [5] [nM]	Ki (Mu-type opioid receptor [1]; cho) [nM]	Ki ([3]; cho) [nM]	Ki ([5]; cho) [nM]
Oc1ccc2c(c1)[C@]13CCN(CCc4ccccc4)[C@H](CC[C@H]1O2)C3 (racemic)	486	23	98	46	> 4900	–	–	–
Oc1cccc2c1O[C@@H]1CC[C@@H]3C[C@]21CCN3CCc1ccccc1 (racemic)	167	274	171	163	> 4900	–	–	–
Oc1cccc2c1O[C@H]1CC[C@@H]3C[C@]21CCN3CCc1ccccc1	–	328	–	761	–	384	367	> 5000
CN1CC[C@]23C[C@H]1CC[C@H]2Oc1c(O)cccc13 (racemic)	> 2800	–	7500	–	> 4900	–	–	–
CN1CC[C@]23C[C@H]1CC[C@H]2Oc1ccc(O)cc13 (racemic)	> 2800	–	> 8600	–	> 4900	–	–	–
Oc1ccc2c(c1)[C@]13CCN(CCc4ccccc4)[C@H](CC[C@@H]1O2)C3	250	47	199	100	> 5000	–	–	–
Oc1cccc2c1O[C@@H]1CC[C@H]3C[C@@]21CCN3CCc1ccccc1	49	31	42	22	> 5000	–	–	–
Oc1ccc2c(c1)[C@@]13CCN(CCc4ccccc4)[C@@H](CC[C@H]1O2)C3	352	227	102	103	> 5000	–	–	–
